Values quoted from earlier work as cited in US5972966A, “Inhibitors of farnesyl-protein transferase” (Merck & Co., Inc., priority 1997, dated 1999).

Legend:
[1] = system: farnesyl-protein transferase; settings: by inhibiting HMG-CoA reductase
[2] = system: Ras processing in cells; settings: by inhibiting the rate-limiting step in the isoprenoid biosynthetic pathway

| SMILES | Indirect inhibition of farnesyl-protein transferase in vivo [1] | blocking of Ras processing in cells [2] |
| --- | --- | --- |
| CC[C@H](C)C(=O)O[C@H]1CCC=C2C=C[C@H](C)[C@H](CC[C@@H]3C[C@@H](O)CC(=O)O3)[C@H]21 [compactin] | Indirect inhibition | – |
| CC[C@H](C)C(=O)O[C@H]1C[C@@H](C)C=C2C=C[C@H](C)[C@H](CC[C@@H]3C[C@@H](O)CC(=O)O3)[C@H]21 [lovastatin] | Indirect inhibition | blocks Ras processing in cells |
